Laboratory results: EPA's ToxRefDB 2

What was measured:
rat [1] = conditions: Combined chronic toxicity/carcinogenicity, wistar, Oral, Feed, dose end: 2 year, group: systemic
mouse [2] = conditions: Subchronic oral toxicity in rodents, other, Feed, dose end: 90 day, group: systemic
mouse [3] = conditions: Carcinogenicity, other, Oral, Feed, dose end: 18 month, group: systemic
rat [4] = conditions: Multigenerational reproductive toxicity study, Wistar, Oral, Feed, dose end: 2 generation
dog = conditions: Chronic toxicity, beagle, Oral, Feed, dose end: 52 week, group: systemic
rabbit = conditions: Prenatal developmental toxicity study, new zealand white, Oral, Gavage/Intubation, dose end: 28 GD
rat [5] = conditions: Subchronic oral toxicity in rodents, wistar, Feed, dose end: 90 day, group: systemic
rat [6] = conditions: Combined chronic toxicity/carcinogenicity; wistar; Oral; Diet; dose end: 104 week; group: systemic; systemic / in life observation / body weight / body weight + systemic / in life observation / food consumption / food consumption + systemic…
rat [7] = conditions: Prenatal developmental toxicity study, wistar, Oral, Gavage/Intubation, dose end: 15 GD
[8] = systemic / in life observation / body weight / body weight + systemic / in life observation / body weight / body weight gain + systemic / …
[9] = systemic / clinical chemistry / cholesterol / cholesterol + systemic / pathology microscopic / liver / hypertrophy + systemic / clinical …
[10] = systemic / pathology microscopic / epididymis / dilatation + systemic / pathology microscopic / epididymis / infiltration cellular + …
[11] = group: offspring, systemic / in life observation / body weight / offspring (pup) weight gain
[12] = group: parental, systemic / in life observation / body weight / body weight gain
[13] = systemic / hematology / erythrocyte (rbc) count differential / erythrocyte (rbc) + systemic / hematology / hematocrit (hct) / hematocrit (…
[14] = group: developmental, developmental / developmental malformation / bone / hole(s) + developmental / developmental malformation / bone / incomplete ossification + …
[15] = group: maternal, reproductive / reproductive performance / aborted / aborted + systemic / in life observation / body weight / body weight gain + systemic / …
[16] = systemic / clinical chemistry / alkaline phosphatase (alp/alk) / alkaline phosphatase (alp/alk) + systemic / clinical chemistry / urea …
[17] = group: developmental, systemic / in life observation / body weight / fetal weight
[18] = group: maternal, systemic / in life observation / body weight / body weight + systemic / in life observation / body weight / body weight gain

O=C(Nc1ccccc1)Nc1cnns1 [Thidiazuron]
LOAEL (rat [1]; [8]): 36.4 mg/kg/day | NOAEL (rat [1]; [8]): 8 mg/kg/day | NEL (rat [1]; systemic / pathology microscopic / kidney / mineralization + systemic / pathology microscopic / kidney / dilatation + systemic / pathology …): 105 mg/kg/day | LOAEL (mouse [2]; systemic / clinical chemistry / cholesterol / cholesterol + systemic / pathology microscopic / liver / hypertrophy): 171 mg/kg/day | NEL (mouse [2]; [9]): 85.2 mg/kg/day | NOAEL (mouse [2]; [9]): 85.2 mg/kg/day | LEL (mouse [2]; systemic / clinical chemistry / cholesterol / cholesterol + systemic / pathology microscopic / liver / hypertrophy + systemic / organ weight…): 171 mg/kg/day | LOAEL (mouse [3]; systemic / pathology microscopic / epididymis / dilatation + systemic / pathology microscopic / epididymis / infiltration cellular): 86.7 mg/kg/day | LEL (mouse [3]; [10]): 86.7 mg/kg/day | NEL (mouse [3]; [10]): 26.5 mg/kg/day | NOAEL (mouse [3]; [10]): 26.5 mg/kg/day | LEL (rat [4]; [11]): 108 mg/kg/day | LOAEL (rat [4]; [11]): 108 mg/kg/day | NEL (rat [4]; [11]): 35.4 mg/kg/day | NOAEL (rat [4]; [11]): 35.4 mg/kg/day | LEL (rat [4]; [12]): 108 mg/kg/day | LOAEL (rat [4]; [12]): 108 mg/kg/day | NEL (rat [4]; [12]): 35.4 mg/kg/day | NOAEL (rat [4]; [12]): 35.4 mg/kg/day | LOAEL (dog; [13]): 11.8 mg/kg/day | NOAEL (dog; [13]): 3.93 mg/kg/day | LEL (dog; systemic / organ weight / spleen / absolute + systemic / organ weight / spleen / relative to body weight): 11.1 mg/kg/day | NEL (dog; systemic / organ weight / spleen / absolute + systemic / organ weight / spleen / relative to body weight + systemic / hematology / …): 4.01 mg/kg/day | LEL (rabbit; [14]): 125 mg/kg/day | LOAEL (rabbit; [14]): 125 mg/kg/day | NEL (rabbit; [14]): 25 mg/kg/day | NOAEL (rabbit; [14]): 25 mg/kg/day | LEL (rabbit; [15]): 125 mg/kg/day | LOAEL (rabbit; [15]): 125 mg/kg/day | NEL (rabbit; [15]): 25 mg/kg/day | NOAEL (rabbit; [15]): 25 mg/kg/day | LOAEL (rat [5]; [16]): 102 mg/kg/day | NEL (rat [5]; [16]): 11.2 mg/kg/day | NOAEL (rat [5]; [16]): 34.5 mg/kg/day | LEL (rat [5]; systemic / clinical chemistry / phosphorus / phosphorus): 34.5 mg/kg/day | LEL (rat [6]): 31.7 mg/kg/day | LOAEL (rat [6]): > 31.7 mg/kg/day | NEL (rat [6]): 10.6 mg/kg/day | NOAEL (rat [6]): ≥ 31.7 mg/kg/day | LEL (rat [7]; [17]): 300 mg/kg/day | LOAEL (rat [7]; [17]): 300 mg/kg/day | NEL (rat [7]; [17]): 100 mg/kg/day | NOAEL (rat [7]; [17]): 100 mg/kg/day | LEL (rat [7]; [18]): 300 mg/kg/day | LOAEL (rat [7]; [18]): 300 mg/kg/day | NEL (rat [7]; [18]): 100 mg/kg/day | NOAEL (rat [7]; [18]): 100 mg/kg/day
